Measured values from US10570184B2, “GLP-1/glucagon receptor co-agonists for medical use” (Novo Nordisk A/S, priority 2014, dated 2020).
Starred links: 1 amine or outer side, 2 acyl side, 3 side chain; linkers in the order of their positions; H or OH if unused. Non-standard residues stand in square brackets, D forms with d. Residues, ends and D or L forms follow the SMILES beside them. Groups on a side chain read outwards from the residue. *: point of attachment. C18 diacid = O=C(O)CCCCCCCCCCCCCCCCC(=O)*; γGlu = O=C(O)[C@H](CCC(=O)[*:2])N[*:1]; AEEA = NCCOCCOCC(=O)O; Aib = CC(C)(N)C(=O)O

Key:
human glucagon receptor = molecular target: T1, human glucagon receptor (Homo sapiens, UniProt P47871); assay: Assay (I)(b) glucagon receptor activation, CRE luciferase reporter gene assay in BHK cells; assay type: cell-based; conditions: without presence of serum albumin; read-out: GlucagonR EC50 (pM), [Assay (I)(b)]
T1 construct: expressed in transfected cells; host or cells: membranes of BHK cells, clone BHK hGCGR A3*25
Protocol: The purpose of this example was to test the activity or potency, of the glucagon derivatives of the invention, in vitro. The in vitro potency is the measure of human GLP-1 receptor (GLP-1R) or glucagon receptor (glucagonR) activation, respectively, in a whole cell assay. In vitro potency was determined by measuring the response of human GLP-1 or glucagon receptor, respectively, in a reporter gene assay. The assay was performed in a stably transfected BHK cell line that expresses either the human GLP-1 receptor or the human glucagon receptor and contains the DNA for the cAMP response element (CRE) coupled to a promoter and the gene for firefly luciferase (CRE luciferase). […] When assay incubation was completed, the luciferase substrate (luciferin) was added and the enzyme converted luciferin to oxyluciferin and produces bioluminescence. The luminescence was measured as the readout for the assay. The cells used in this assay (clone pLJ6′-4-25) were BHK cells with BHK570 as a parent cell line expressing the CRE luciferase gene (clone BHK/KZ10-20-48) and were established by further transfection with the human glucagon receptor (clone pLJ6′ in pHZ-1 vector). The cells were cultured at 5% CO2 in DMEM medium with 10% FBS, 1×GlutaMAX, 1 mg/ml G418, 240 nM MTX (methotrexate) and 1% pen/strep (penicillin/streptomycin). They were aliquoted and stored in liquid nitrogen. Before each assay, an aliquot was taken up and washed three times in PBS before being suspended at the desired concentration in assay medium. For 96-well plates the suspension was made to give a final concentration of 5×10EE3 cells/well. The following chemicals were used in the assay: Pluronic F-68 (10%) (Gibco 2404), ovalbumin (Sigma A5503), DMEM w/o phenol red (Gibco 11880-028), 1 M Hepes (Gibco 15630), Glutamax 100× (Gibco 35050) and steadylite plus (PerkinElmer 6016757). Assay Medium consisted of DMEM w/o phenol red, 10 mM Hepes, 1× GlutaMAX, 2% Ovalbumin and 0.2% Pluronic F-68. Cell stocks were thawed in a 37° C. water bath. Cells were washed three times in PBS. The cells were counted and adjusted to 5×10EE3 cells/50 μl (1×10EE5 cells/ml) in Assay Medium. A 50 μl aliquot of cells was transferred to each well in the assay plate. Stocks of the test compounds and reference compounds were diluted to a concentration of […] in Assay Medium. Compounds were diluted 10-fold to give the following concentrations: 2×10EE-6 M, 2×10EE-7 M, 2×10EE-8 M; 2×10EE-9 M, 2×10EE-10 M, 2×10EE-11 M, 2×10EE-12 M and 2×10EE-13 M. For each compound a blank assay medium control was also included. A 50 μl aliquot of compound or blank was transferred from the dilution plate to the assay plate. Compounds were tested at the following final concentrations: 1×10EE-6 M, 1×10EE-7 M, 1×10EE-8 M; 1×10EE-9 M, 1×10EE-10 M, 1×10EE-11 M and 1×10EE-12 M and 1×10EE-13 M. The assay plate was incubated for 3 h in a 5% CO2 incubator at 37° C. The assay plate was removed from the incubator and allowed to stand at room temperature for 15 min. A 100 μl aliquot of steadylite plus reagent was added to each well of the assay plate (reagent is light sensitive). Each assay plate was covered with aluminum foil to protect it from light and shaken for 30 min at room temperature. Each assay plate was read in a Perkin Elmer TopCount NXT instrument. The data from the TopCount instrument was transferred to GraphPad Prism software. The software performed a non-linear regression (log(agonist) vs response-Variable slope (four parameter)). EC50 values were calculated by the software and reported in pM.

human GLP-1 receptor = molecular target: T2, human GLP-1 receptor (Homo sapiens, UniProt P43220); assay: Assay (I)(a) GLP-1 receptor activation, CRE luciferase reporter gene assay in BHK cells; assay type: cell-based; conditions: without presence of serum albumin; read-out: GLP-1R EC50 (pM) [Assay (I)(a)]
T2 construct: expressed in transfected cells; host or cells: membranes of BHK cells (parent BHKTS13), clone FCW467-12A
Method in brief: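 Stable BHK clone expressing human GLP-1 receptor with CRE-driven firefly luciferase, 5×10EE3 cells/well in medium with 2% ovalbumin and 0.2% Pluronic F-68. Compounds at 1×10EE-13 to 1×10EE-6 M final, 3 h at 37° C.; luminescence read, EC50 (pM) from four-parameter fit.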

[1] = Assay (III) ThT fibrillation assay for physical stability; assay type: physicochemical; conditions: 250 μM in 10 mM HEPES buffer, 37° C., shaking 960 rpm
From the text: The purpose of this assay is to assess the physical stability of the glucagon derivatives of the invention in aqueous solutions. Low physical stability of a peptide may lead to amyloid fibril formation, which is observed as well-ordered, thread-like macromolecular structures in the sample, which eventually may lead to gel formation. This has traditionally been measured by visual inspection of the sample. However, that kind of measurement is very subjective and depending on the observer. Therefore, the application of a small molecule indicator probe is much more advantageous. Thioflavin T (ThT) is such a probe and has a distinct fluorescence signature when binding to fibrils [Naiki et al. (1989) Anal. Biochem. 177, 244-249; LeVine (1999) Methods. Enzymol. 309, 274-284]. […] The constant t0 is the time needed to reach 50% of maximum fluorescence. The two important parameters describing fibril formation are the lag-time calculated by t0−2τ and the apparent rate constant kapp 1/τ. Samples were prepared freshly before each assay. Each sample composition is described in the legends. The pH of the sample was adjusted to the desired value using appropriate amounts of concentrated NaOH and HCl. Thioflavin T was added to the samples from a stock solution in H2O to a final concentration of 1 μM. Sample aliquots of 200 μl (250 μM of the glucagon derivative in 10 mM HEPES buffer, pH 7.5) were placed in a 96 well microtiter plate (Packard OptiPlate™-96, white polystyrene). Usually, four or eight replica of each sample (corresponding to one test condition) were placed in one column of wells. The plate was sealed with Scotch Pad (Qiagen). Incubation at given temperature, shaking and measurement of the ThT fluorescence emission were done in a Fluoroskan Ascent FL fluorescence platereader (Thermo Labsystems). The temperature was adjusted to 37° C. The plate was incubated with orbital shaking adjusted to 960 rpm with an amplitude of 1 mm. Fluorescence measurement was done using excitation through a 444 nm filter and measurement of emission through a 485 nm filter. Each run was initiated by incubating the plate at the assay temperature for 10 min. The plate was measured every 20 minutes for a desired period of time. Between each measurement, the plate was shaken and heated as described. After completion of the ThT assay the four or eight replica of each sample was pooled and centrifuged at 20000 rpm for 30 minutes at 18° C. The supernatant was filtered through a 0.22 μm filter and an aliquot was transferred to a HPLC vial. The concentration of peptide in the initial sample and in the filtered supernatant was determined by reverse phase HPLC using an appropriate standard as reference. The percentage fraction the concentration of the filtered sample constituted of the initial sample concentration was reported as the recovery. The measurement points were saved in Microsoft Excel format for further processing and curve drawing and fitting was performed using GraphPad Prism. The background emission from ThT in the absence of fibrils was negligible. The data points are typically a mean of four or eight samples and shown with standard deviation error bars. Only data obtained in the same experiment (i.e. samples on the same plate) are presented in the same graph ensuring a relative measure of fibrillation between experiments. The data set may be fitted to Eq. (1).

T2 sequence (P43220 24-463): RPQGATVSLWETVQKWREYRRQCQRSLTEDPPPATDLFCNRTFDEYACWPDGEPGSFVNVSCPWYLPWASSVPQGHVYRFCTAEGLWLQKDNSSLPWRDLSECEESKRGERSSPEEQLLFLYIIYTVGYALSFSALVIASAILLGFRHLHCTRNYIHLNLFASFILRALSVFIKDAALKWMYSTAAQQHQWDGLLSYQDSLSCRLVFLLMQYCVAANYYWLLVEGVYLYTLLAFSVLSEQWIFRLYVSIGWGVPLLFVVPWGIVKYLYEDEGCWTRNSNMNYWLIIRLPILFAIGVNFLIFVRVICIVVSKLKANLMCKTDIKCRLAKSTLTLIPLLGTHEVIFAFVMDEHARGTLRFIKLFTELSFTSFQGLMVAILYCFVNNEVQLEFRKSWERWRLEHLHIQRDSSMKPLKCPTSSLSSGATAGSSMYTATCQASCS
T1 sequence (P47871 26-477): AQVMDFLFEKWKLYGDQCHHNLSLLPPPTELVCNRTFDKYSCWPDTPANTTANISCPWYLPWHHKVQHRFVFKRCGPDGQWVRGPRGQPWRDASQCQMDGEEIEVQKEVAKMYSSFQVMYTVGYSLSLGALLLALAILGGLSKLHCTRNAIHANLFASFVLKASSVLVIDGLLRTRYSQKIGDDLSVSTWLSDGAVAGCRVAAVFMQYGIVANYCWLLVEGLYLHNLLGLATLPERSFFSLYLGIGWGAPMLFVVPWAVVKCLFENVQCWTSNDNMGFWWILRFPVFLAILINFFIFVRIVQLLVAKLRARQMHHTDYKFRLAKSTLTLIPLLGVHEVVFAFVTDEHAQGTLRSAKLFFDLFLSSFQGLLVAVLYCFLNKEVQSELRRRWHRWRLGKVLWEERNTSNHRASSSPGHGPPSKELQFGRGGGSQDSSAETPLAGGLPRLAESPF

## CC[C@H](C)[C@H](NC(=O)[C@H](CC(C)C)NC(=O)[C@H](Cc1c[nH]c2ccccc12)NC(=O)[C@H](CCC(N)=O)NC(=O)[C@@H](NC(=O)[C@H](Cc1ccccc1)NC(=O)[C@H](CC(=O)O)NC(=O)[C@H](CCCNC(=N)N)NC(=O)[C@H](C)NC(=O)[C@H](CCCNC(=N)N)NC(=O)[C@H](CCCNC(=N)N)NC(=O)[C@H](C)NC(=O)[C@H](CC(=O)O)NC(=O)[C@H](CC(C)C)NC(=O)[C@H](Cc1ccc(O)cc1)NC(=O)[C@H](CCCCN)NC(=O)[C@H](CO)NC(=O)[C@H](CC(C)C)NC(=O)[C@H](CC(=O)O)NC(=O)[C@H](CO)NC(=O)[C@@H](NC(=O)[C@H](Cc1ccccc1)NC(=O)[C@@H](NC(=O)CNC(=O)[C@H](CCC(N)=O)NC(=O)C(C)(C)NC(=O)[C@@H](N)Cc1c[nH]cn1)[C@@H](C)O)[C@@H](C)O)C(C)C)C(=O)N[C@@H](CCCCNC(=O)CC[C@H](NC(=O)CC[C@H](NC(=O)CC[C@H](NC(=O)CCCCCCCCCCCCCCCCC(=O)O)C(=O)O)C(=O)O)C(=O)O)C(=O)N[C@H](C(N)=O)[C@@H](C)O [Chem. 15, N^ε28-[(4S)-4-carboxy-4-[[(4S)-4-carboxy-4-[[(4S)-4-carboxy-4-(17-carboxyheptadecanoylamino)butanoyl]amino]butanoyl]amino]butanoyl]-[Aib2,Leu10,Ala16,Arg20,Ile27,Lys28]-Glucagon amide] (HELM PEPTIDE1{H.[Aib].Q.G.T.F.T.S.D.L.S.K.Y.L.D.A.R.R.A.R.D.F.V.Q.W.L.I.K.T.[am]}|PEPTIDE2{[O=C(O)CCCCCCCCCCCCCCCCC(=O)[*:2]].[gGlu].[gGlu].[gGlu]}$PEPTIDE1,PEPTIDE2,28:R3-4:R2$$$V2.0)
Human glucagon receptor
  EC50: 7 pM
Human GLP-1 receptor
  EC50: 4 pM

## CC[C@H](C)[C@H](NC(=O)[C@H](CC(C)C)NC(=O)[C@H](Cc1c[nH]c2ccccc12)NC(=O)[C@H](C)NC(=O)[C@@H](NC(=O)[C@H](Cc1ccccc1)NC(=O)[C@H](CC(=O)O)NC(=O)[C@H](CCCNC(=N)N)NC(=O)[C@H](C)NC(=O)[C@H](CCCNC(=N)N)NC(=O)[C@H](CCCNC(=N)N)NC(=O)[C@H](CC(C)C)NC(=O)[C@H](CC(=O)O)NC(=O)[C@H](CC(C)C)NC(=O)[C@H](Cc1ccc(O)cc1)NC(=O)[C@H](CCCCN)NC(=O)[C@H](CO)NC(=O)[C@H](Cc1ccc(O)cc1)NC(=O)[C@H](CC(=O)O)NC(=O)[C@H](CO)NC(=O)[C@@H](NC(=O)[C@H](Cc1ccccc1)NC(=O)[C@@H](NC(=O)CNC(=O)[C@H](CCC(N)=O)NC(=O)C(C)(C)NC(=O)[C@@H](N)Cc1c[nH]cn1)[C@@H](C)O)[C@@H](C)O)C(C)C)C(=O)N[C@@H](CCCCNC(=O)CC[C@H](NC(=O)CC[C@H](NC(=O)COCCOCCNC(=O)COCCOCCNC(=O)CC[C@H](NC(=O)CCCCCCCCCCCCCCCCC(=O)O)C(=O)O)C(=O)O)C(=O)O)C(=O)N[C@H](C(N)=O)[C@@H](C)O [Chem. 33, N^ε28-[(4S)-4-carboxy-4-[[(4S)-4-carboxy-4-[[2-[2-[2-[[2-[2-[2-[[(4S)-4-carboxy-4-(17-carboxyheptadecanoylamino)butanoyl]amino]ethoxy]ethoxy]acetyl]amino]ethoxy]ethoxy]acetyl]amino]butanoyl]amino]butanoyl]-[Aib2,Leu16,Arg20,Ala24,Ile27,Lys28]-Glucagon amide] (H-H[Aib]QGTFTSDYSKYLDLRRARDFVAWLIK([γGlu-γGlu-AEEA-AEEA-γGlu-C18 diacid])T-NH2)
[1]
  ThT Assay Lag time (h) [Assay (III), pH 7.5]: 45.0 h
Human GLP-1 receptor
  EC50: 7 pM
